We go through two compounds from publication PMC8213057, “Targeting ALK2: An Open Science Approach to Developing Therapeutics for the Treatment of Diffuse Intrinsic Pontine Glioma” (Journal of Medicinal Chemistry, 2020).

Experiment [1] has as its target T1, AXL (Homo sapiens, UniProt P30530).
T1 sequence (P30530 26-894): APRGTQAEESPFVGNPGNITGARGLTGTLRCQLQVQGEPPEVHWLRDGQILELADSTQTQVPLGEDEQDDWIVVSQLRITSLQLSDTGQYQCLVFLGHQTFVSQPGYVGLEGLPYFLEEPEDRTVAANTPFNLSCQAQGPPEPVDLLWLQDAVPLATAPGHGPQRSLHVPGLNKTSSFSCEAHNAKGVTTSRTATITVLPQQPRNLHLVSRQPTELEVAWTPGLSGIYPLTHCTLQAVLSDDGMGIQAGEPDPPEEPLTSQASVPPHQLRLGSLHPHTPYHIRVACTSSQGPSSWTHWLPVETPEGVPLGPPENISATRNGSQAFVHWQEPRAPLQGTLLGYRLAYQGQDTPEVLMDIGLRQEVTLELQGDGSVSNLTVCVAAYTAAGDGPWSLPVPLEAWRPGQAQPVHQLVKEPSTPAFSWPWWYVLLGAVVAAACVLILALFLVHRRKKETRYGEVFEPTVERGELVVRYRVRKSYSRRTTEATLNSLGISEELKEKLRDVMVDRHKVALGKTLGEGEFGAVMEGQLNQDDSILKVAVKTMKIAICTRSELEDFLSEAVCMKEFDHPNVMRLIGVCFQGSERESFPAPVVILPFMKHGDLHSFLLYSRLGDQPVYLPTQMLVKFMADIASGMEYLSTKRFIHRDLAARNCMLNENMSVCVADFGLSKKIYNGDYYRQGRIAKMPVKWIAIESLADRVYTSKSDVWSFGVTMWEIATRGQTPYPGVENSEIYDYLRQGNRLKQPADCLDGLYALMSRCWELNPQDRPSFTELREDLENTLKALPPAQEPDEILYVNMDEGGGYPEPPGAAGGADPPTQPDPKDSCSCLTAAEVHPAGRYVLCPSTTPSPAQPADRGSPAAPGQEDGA
The experiment in a line: biochemical. The conditions noted are these: read-out: % enzyme activity, 1 μM; Run 1, Run 2.

Experiment [2] addresses ERK5/MAPK7 (Homo sapiens, UniProt Q13164). The experiment in a line: biochemical. Conditions: read-out: % enzyme activity, 1 μM; Run 1, Run 2.
Experiment [3] deals with MYO3A (Homo sapiens, UniProt Q8NEV4). The experiment in a line: biochemical. The conditions noted are these: read-out: % enzyme activity, 1 μM; Run 1, Run 2.
The target in experiment [4] is T2, EPHA8 (Homo sapiens, UniProt P29322).
T2 sequence (P29322 28-1005): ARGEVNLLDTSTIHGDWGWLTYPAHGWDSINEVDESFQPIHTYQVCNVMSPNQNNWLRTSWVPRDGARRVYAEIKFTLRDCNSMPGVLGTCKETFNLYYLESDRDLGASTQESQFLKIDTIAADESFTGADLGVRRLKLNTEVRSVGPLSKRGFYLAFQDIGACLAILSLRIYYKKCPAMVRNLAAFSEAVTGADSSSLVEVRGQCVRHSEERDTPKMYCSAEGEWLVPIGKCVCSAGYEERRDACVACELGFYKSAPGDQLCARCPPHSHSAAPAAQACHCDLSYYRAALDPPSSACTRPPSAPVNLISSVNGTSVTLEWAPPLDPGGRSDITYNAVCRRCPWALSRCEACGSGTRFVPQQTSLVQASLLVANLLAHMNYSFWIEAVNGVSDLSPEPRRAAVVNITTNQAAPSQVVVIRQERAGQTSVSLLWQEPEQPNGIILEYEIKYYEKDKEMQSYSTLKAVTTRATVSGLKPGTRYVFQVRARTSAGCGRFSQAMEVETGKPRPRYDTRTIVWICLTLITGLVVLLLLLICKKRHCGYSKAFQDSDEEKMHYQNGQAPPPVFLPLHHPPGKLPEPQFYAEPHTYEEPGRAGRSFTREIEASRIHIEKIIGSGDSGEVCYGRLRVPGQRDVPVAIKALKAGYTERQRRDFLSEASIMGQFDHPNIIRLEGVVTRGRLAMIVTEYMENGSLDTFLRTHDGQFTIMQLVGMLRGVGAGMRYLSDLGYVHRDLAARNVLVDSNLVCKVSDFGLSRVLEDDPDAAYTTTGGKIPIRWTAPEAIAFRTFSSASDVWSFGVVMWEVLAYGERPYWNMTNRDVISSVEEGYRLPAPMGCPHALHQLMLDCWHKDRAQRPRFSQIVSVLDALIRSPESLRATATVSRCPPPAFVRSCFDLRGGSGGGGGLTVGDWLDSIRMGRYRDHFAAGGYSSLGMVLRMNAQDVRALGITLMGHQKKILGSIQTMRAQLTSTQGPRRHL
Conditions: 1 μM; Run 1, Run 2.

In experiment [5] the target is T3, BRSK1 (Homo sapiens, UniProt Q8TDC3).
T3 sequence (Q8TDC3 1-778): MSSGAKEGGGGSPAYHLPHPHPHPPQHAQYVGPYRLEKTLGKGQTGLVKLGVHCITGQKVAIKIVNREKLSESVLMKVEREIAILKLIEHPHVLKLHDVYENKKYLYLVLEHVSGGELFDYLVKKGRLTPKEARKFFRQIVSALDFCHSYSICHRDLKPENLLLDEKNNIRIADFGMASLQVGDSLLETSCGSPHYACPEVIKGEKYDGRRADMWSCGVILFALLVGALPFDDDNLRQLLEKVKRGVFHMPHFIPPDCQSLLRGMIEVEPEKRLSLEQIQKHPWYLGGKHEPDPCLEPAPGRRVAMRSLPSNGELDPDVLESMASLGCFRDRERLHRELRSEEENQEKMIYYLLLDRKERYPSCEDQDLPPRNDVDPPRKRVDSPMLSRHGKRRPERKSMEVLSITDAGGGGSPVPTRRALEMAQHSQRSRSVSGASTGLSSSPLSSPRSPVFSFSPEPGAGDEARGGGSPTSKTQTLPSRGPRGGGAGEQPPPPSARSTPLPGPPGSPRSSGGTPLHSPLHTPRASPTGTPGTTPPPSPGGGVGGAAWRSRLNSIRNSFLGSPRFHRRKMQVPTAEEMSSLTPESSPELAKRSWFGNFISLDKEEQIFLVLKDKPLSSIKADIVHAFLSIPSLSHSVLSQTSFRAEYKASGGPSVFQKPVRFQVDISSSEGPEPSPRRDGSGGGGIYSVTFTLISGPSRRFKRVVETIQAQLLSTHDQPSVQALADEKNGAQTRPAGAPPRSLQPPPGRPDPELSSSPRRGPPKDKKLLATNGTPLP
Conditions: 1 μM; Run 1, Run 2.

Molecules are shown by their SMILES.

Chain of MYO3A (Q8NEV4 whole entry): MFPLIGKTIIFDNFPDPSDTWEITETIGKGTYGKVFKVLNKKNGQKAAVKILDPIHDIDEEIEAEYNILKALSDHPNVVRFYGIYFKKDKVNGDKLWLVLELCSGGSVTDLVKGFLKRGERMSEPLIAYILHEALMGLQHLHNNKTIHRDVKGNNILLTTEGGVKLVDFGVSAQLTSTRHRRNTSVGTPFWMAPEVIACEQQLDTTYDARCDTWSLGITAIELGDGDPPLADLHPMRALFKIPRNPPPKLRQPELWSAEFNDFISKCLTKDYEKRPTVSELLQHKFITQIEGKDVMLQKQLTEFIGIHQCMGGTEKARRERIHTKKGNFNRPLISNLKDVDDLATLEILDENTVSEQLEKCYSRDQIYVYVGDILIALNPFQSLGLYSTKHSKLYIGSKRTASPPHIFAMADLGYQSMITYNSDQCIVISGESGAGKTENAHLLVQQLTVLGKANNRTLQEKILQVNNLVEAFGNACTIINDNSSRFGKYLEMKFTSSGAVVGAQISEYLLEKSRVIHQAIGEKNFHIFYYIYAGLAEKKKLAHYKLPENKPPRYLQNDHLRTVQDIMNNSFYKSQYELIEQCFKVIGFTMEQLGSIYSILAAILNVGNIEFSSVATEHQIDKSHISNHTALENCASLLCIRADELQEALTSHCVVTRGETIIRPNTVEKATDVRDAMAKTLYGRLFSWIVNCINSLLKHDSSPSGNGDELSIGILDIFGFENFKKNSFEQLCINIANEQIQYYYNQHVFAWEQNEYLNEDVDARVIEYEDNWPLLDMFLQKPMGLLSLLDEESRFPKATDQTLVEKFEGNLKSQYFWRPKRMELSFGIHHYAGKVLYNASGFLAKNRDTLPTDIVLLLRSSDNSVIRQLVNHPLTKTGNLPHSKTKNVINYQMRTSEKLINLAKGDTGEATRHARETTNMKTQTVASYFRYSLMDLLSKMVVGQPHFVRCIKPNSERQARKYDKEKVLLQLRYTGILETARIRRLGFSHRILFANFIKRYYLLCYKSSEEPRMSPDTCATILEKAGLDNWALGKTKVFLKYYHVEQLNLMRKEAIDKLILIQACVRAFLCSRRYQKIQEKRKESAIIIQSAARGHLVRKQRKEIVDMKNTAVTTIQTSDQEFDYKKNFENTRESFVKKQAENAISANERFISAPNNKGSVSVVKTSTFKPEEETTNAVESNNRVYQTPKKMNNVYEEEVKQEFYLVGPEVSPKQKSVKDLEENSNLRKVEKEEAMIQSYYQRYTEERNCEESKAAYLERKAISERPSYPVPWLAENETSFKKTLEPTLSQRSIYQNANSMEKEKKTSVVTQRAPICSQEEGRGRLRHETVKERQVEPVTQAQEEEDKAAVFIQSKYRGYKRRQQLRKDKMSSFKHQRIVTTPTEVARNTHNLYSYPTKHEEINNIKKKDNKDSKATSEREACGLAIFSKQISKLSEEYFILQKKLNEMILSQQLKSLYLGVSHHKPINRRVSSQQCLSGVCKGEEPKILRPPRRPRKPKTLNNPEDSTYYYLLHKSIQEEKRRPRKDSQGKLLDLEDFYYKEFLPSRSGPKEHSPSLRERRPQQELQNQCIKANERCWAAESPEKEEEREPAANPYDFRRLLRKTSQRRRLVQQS
Chain of ERK5/MAPK7 (Q13164 whole entry): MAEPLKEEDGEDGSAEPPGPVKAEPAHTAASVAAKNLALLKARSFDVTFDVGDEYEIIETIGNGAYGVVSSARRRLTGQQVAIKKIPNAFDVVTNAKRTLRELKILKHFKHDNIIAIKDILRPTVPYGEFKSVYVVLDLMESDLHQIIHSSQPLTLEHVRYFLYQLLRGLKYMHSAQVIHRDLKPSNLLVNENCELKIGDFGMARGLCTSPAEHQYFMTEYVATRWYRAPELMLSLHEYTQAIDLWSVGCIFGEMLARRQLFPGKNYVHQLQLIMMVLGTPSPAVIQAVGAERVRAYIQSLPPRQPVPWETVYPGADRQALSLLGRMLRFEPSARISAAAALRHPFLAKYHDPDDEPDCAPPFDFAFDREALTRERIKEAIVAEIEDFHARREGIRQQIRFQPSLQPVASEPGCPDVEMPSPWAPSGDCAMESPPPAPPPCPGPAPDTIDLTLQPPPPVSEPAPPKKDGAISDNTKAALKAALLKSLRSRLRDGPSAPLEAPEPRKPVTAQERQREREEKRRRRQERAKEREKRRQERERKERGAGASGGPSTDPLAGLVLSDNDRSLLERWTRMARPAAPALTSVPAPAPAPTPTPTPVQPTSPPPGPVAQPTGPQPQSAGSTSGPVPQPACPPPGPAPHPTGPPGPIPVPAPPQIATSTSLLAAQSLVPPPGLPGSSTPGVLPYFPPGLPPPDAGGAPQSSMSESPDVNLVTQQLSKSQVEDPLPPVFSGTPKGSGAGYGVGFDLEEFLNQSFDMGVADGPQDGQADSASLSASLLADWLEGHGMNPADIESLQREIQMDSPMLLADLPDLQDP

For the compound `COc1cc(-c2cncc(-c3ccc(N4C[C@@H](C)N(C)[C@@H](C)C4)cc3)c2C)cc(F)c1C(N)=O` [Compound 26c, 2-Fluoro-6-methoxy-4-(4-methyl-5-(4-((3R,5S)-3,4,5-trimethylpiperazin-1-yl)phenyl)pyridin-3-yl)benzamide], the remaining activity at 1 µM in experiment [1] worked out at 91.3%; in experiment [2], 101%; in experiment [3] it was 94.7%. Further, the “% enzyme activity” value in experiment [4] amounted to 97.01%; in experiment [5], 78.18%.
The corresponding values for `COc1cc(-c2cncc(-c3ccc(N4CCN(C)CC4)cc3)c2C)cc(F)c1C(N)=O` [Compound 26a, 2-Fluoro-6-methoxy-4-(4-methyl-5-(4-(4-methylpiperazin-1-yl)phenyl)pyridin-3-yl)benzamide] are 81.8%, 96.5%, 84%, 94.54% and 83.89%.
